Results: patent US9187411B2, “Leukotriene B4 antagonist compound” (Eli Lilly and Company, priority 2012, dated 2015)
Read-outs that look alike come from different tables or passages of the source.

Biological target: T1, hBLT2 (Homo sapiens, UniProt Q9NPC1)
T1 construct: expressed in transfected cells; membrane preparation
T1 sequence (Q9NPC1 1-358): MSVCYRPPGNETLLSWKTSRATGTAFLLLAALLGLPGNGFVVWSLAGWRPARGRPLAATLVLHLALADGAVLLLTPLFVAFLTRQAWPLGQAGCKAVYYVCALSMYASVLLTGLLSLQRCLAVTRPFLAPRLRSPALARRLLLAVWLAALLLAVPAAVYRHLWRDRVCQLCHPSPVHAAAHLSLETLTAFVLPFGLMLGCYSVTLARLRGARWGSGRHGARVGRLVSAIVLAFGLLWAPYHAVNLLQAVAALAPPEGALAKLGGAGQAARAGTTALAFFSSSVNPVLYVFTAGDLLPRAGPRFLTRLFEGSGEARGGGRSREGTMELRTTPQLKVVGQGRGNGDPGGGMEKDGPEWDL
Assay: [3H]-LTB4 binding assay in hBLT2 containing membranes
Details: [3H]-LTB4 displacement, hBLT2/CHO-K1 membranes
Protocol: [^3H]-LTB4 and known BLT1 and BLT2 antagonists are used to generate LTB4 displacement curves and IC50 values for compounds of the present invention. Receptor inhibition by compounds of the present invention is determined relative to BLT1 inhibitor and BLT2 inhibitor reference molecules to obtain percent efficacies.
hBLT2 Test Compound Preparations: For hBLT2 assays, test compounds are prepared in DMSO to make up a 10 mM stock solution. The stock solution is initially diluted 1:10 in Buffer A (50 mM HEPES pH 7.4, 10 mM MgCl2, 10 mM NaCl, 10% glycerol (v/v), 1% BSA (w/v)), followed by 3× serial dilutions in Buffer B (50 mM HEPES pH 7.4, 10 mM MgCl2, 10 mM NaCl, 10% glycerol (v/v), 1% BSA (w/v), 10% DMSO (v/v)) creating a ten-point dilution curve. Final compound concentrations ranging from 300 μM to 15.2 nM are plated in a 96-well round-bottom plate for conducting the in vitro assays. […]
[^3H]-LTB4 (30 μL of 2.8 nM, PerkinElmer NET-852) is aliquoted into each well of a Falcon® 3072 microtiter plate (BD Biosciences). […] The plate is allowed to sit for 16 h and then read on a Packard Instrument Company Topcount® for 1 min. […]

Work on CCCc1c(NC(=O)CC(C)(C)C(=O)[O-])cccc1OCCCOc1cc(O)c(-c2ccc(F)cc2)cc1CC.[Na+] [Example 2, Sodium 4-[[3-[3-[2-ethyl-4-(4-fluorophenyl)-5-hydroxy-phenoxy]propoxy]-2-propyl-phenyl]amino]-2,2-dimethyl-4-oxo-butanoate] yielded an IC50 (read-out: absolute IC50) of 16.5 µM and an IC50 (read-out: relative IC50) of 15.4 µM.
